The results in this text go back to patent US20240165281A1, “DUAL MODE RADIOTRACER AND THERAPEUTICS” (Technische Universität München, priority 2021, published 2024).

Data set [1] is described as follows: Octanol-water partition coefficient (log D7.4). In kind it is physicochemical. Conditions: PBS pH 7.4 / n-octanol, 177Lu-labelled. Here is the method: Octanol-Water Partition Coefficient (log D7.4)
Approximately 1 MBq of the labelled tracer was dissolved in 1 mL of a 1:1 mixture (v/v) of PBS (pH 7.4) and n-octanol in a reaction vial (1.5 mL). After vigorous mixing of the suspension for 3 minutes at room temperature, the vial was centrifuged at 15000 g for 3 minutes (Biofuge 15, Heraus Sepatech, Osterode, Germany) and 100 μL aliquots of both layers were measured in a gamma counter. The experiment was repeated at least six times.

A further data set addresses T1, PSMA (Homo sapiens, UniProt Q04609).
T1 construct: PSMA-positive LNCAP cells (300265; Cell Lines Service, Eppelheim, Germany); host or cells: LNCaP cells
The data set can be described thus: PSMA affinity (IC50), competition with [125I]I-BA-KuE on LNCaP cells. The format is binding. Conditions: natLu complex, on ice 60 min. Here is the method: A mixture of trypsin and EDTA (0.05%, 0.02%) in PBS (Biochrom) was used in order to harvest cells. Cells were counted with a Neubauer hemocytometer (Paul Marienfeld, Lauda-Königshofen, Germany).
Affinity Determinations (IC50)
In the case of metal-complexed ligands, the crude reaction mixture was diluted analogously, without further purification. Cells were harvested 24±2 hours prior to the experiment and seeded in 24-well plates (1.5×10^5 cells in 1 mL/well). […] The media of both steps were combined in one fraction and represent the amount of free radioligand. Afterwards, the cells were lysed with 250 μL of 1 M aqueous NaOH for at least 10 min. After a washing step (250 μL of 1 M NaOH), both fractions, representing the amount of bound ligand, were united. Quantification of all collected fractions was accomplished in a γ-counter. PSMA-affinity determinations were carried out at least three times per ligand.

Another data set concerns LNCaP cells. The data set can be described thus: Internalization studies in LNCaP cells. The format is cell-based. Conditions: 37° C., 60 min, normalized to reference. Here is the method: PSMA-positive LNCAP cells (300265; Cell Lines Service, Eppelheim, Germany) were cultivated in Dulbecco modified Eagle medium/Nutrition Mixture F-12 with Glutamax (1:1) (DMEM-F12, Biochrom, Berlin, Germany) supplemented with fetal bovine serum (10%, FBS Zellkultur, Berlin, Germany) and kept at 37° C. in a humidified CO2 atmosphere (5%). A mixture of trypsin and EDTA (0.05%, 0.02%) in PBS (Biochrom) was used in order to harvest cells. Cells were counted with a Neubauer hemocytometer (Paul Marienfeld, Lauda-Königshofen, Germany).
For internalization studies, LNCaP cells were harvested 24±2 hours before the experiment and seeded in poly-L-lysine coated 24-well plates (1.25×10^5 cells in 1 mL/well, Greiner Bio-One, Kremsmünster, Austria). After removal of the culture medium, the cells were washed once with 500 μL DMEM-F12 (5% BSA) and left to equilibrate for at least 15 min at 37° C. in […] DMEM-F12 (5% BSA). Each well was treated with either 25 μL of either DMEM-F12 (5% BSA, control) or 25 μL of a 100 μM PMPA (2-(Phosphonomethyl)-pentandioic acid, Tocris Bioscience, Bristol, UK) solution in PBS, for blockade. Next, 25 μL of the radioactive-labelled PSMA inhibitor (10.0 nM in DMEM-F12 (5% BSA)) was added and the cells were incubated at 37° C. for 60 min. The experiment was terminated by placing the 24-well plate on ice for 3 min and consecutive removal of the medium. Each well was carefully washed with 250 μL of ice-cold HBSS. Both fractions from the first steps, representing the amount of free radioligand, were combined. Removal of surface bound activity was accomplished by incubation of the cells with 250 μL of ice-cold PMPA (10 μM in PBS) solution for 5 min and rinsed again with another 250 μL of ice-cold PBS. The internalized activity was determined by incubation of the cells in 250 μL […] aqueous NaOH for at least 10 min. The obtained fractions were combined with those of the subsequent wash step with 250 μL 1 M aqueous NaOH. Each experiment (control and blockade) was performed in triplicate. Free, surface bound and internalized activity was quantified in a y-counter. All internalization studies were accompanied by external reference studies, using ([^125I]I-BA)KuE (c=0.2 nM), which were performed analogously. Data were corrected for non-specific binding and normalized to the specific-internalization observed for the radioiodinated reference compound.

The target of data set [2] is T2, Human Serum Albumin (HSA) (Homo sapiens, UniProt P02768).
T2 construct: purchased Daicel H13H-2433
The data set can be described thus: Human serum albumin (HSA) binding by high performance affinity chromatography (HPAC). The format is in vitro ADME. Conditions: Chiralpak HSA column. Here is the method:
Determination of Human Serum Albumin (HSA) Binding by High Performance Affinity Chromatography (HPAC)
HSA binding of the PSMA-addressing ligands was determined according to a previously published procedure via HPLC (Valko, K.; Nunhuck, S.; Bevan, C.; Abraham, M. H.; Reynolds, D. P. Journal of pharmaceutical sciences 2003, 92, 2236-2248). A Chiralpak HSA column (50×3 mm, 5 μm, H13H-2433, Daicel, Tokyo, Japan) was used at a constant flow rate of 0.5 mL/min at rt. Mobile phase A was a freshly prepared 50 mM aqueous solution of NH4OAc (pH 6.9) and mobile phase B was isopropanol (HPLC grade, VWR). The applied gradient for all experiments was 100% A (0 to 3 min), followed by 80% A (3 to 40 min). Prior to the experiment, the column was calibrated using nine reference substances with a HSA binding, known from literature, in the range of 13 to 99% (Valko, K.; Nunhuck, S.; Bevan, C.; Abraham, M. H.; Reynolds, D. P. Journal of pharmaceutical sciences 2003, 92, 2236-2248; Yamazaki, K.; Kanaoka, M. Journal of Pharmaceutical sciences 2004, 93, 1480-1494). All substances, including the examined PSMA ligands, were dissolved in a 1:1 mixture (v/v) of isopropanol and a 50 mM aqueous solution of NH4OAc (pH6.9) with a final concentration of 0.5 mg/mL. Non-linear regression was established with the OriginPro 2016G software (Northampton, United States) (FIG. 8).

Data set [3] in a line: Apparent molecular weight (MWapp).
Data set [4] deals with LNCaP tumor-bearing male CB-17 SCID mice. The data set can be described thus: Biodistribution studies 24 h p.i. Conditions: for In vivo biodistribution (24 h p.i.) blood / In vivo biodistribution (24 h p.i.) kidney / In vivo biodistribution (24 h p.i.) tumor: Table 6; for uptake in adrenals / uptake in blood / uptake in bone / uptake in heart / uptake in intestine / uptake in kidney / uptake in liver / uptake in lung / uptake in muscle / uptake in pancreas / uptake in parotid gl. / uptake in spleen / uptake in stomach / uptake in submand. gl. / uptake in tumor: mean.
Experimental: Approximately 3-7 MBq (0.1-0.2 nmol) of the radioactive-labelled PSMA inhibitors were injected into the tail vein of LNCaP tumor-bearing male CB-17 SCID mice and sacrificed after 24 h post injection. Selected organs were removed, weighted and measured in a γ-counter. Results are all decay corrected and given in % injected dose per gram of tissue (% iD/g). Tumor-to-organ ratios are calculated from animals' individual ratios and are given as mean±standard deviation.

Where two headings read alike, the source gives them in different places.

By IC50 is commonly meant the concentration that gives 50% inhibition.

T2 sequence (P02768 25-609): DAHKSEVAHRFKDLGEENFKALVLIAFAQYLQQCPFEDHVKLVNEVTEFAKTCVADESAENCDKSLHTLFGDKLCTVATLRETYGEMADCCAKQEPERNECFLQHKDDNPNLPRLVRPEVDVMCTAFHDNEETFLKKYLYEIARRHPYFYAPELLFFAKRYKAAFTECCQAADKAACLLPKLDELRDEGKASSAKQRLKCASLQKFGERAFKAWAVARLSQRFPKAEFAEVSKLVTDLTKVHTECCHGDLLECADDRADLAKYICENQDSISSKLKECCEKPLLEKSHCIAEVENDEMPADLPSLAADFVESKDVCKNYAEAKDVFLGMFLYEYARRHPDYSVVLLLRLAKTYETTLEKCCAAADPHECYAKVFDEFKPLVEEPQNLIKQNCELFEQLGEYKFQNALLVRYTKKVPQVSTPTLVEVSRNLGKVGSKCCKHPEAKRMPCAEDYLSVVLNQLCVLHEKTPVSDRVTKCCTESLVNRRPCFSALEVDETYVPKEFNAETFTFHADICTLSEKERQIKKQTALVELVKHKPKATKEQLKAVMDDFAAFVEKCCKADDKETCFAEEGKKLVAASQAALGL
T1 sequence (Q04609 whole entry): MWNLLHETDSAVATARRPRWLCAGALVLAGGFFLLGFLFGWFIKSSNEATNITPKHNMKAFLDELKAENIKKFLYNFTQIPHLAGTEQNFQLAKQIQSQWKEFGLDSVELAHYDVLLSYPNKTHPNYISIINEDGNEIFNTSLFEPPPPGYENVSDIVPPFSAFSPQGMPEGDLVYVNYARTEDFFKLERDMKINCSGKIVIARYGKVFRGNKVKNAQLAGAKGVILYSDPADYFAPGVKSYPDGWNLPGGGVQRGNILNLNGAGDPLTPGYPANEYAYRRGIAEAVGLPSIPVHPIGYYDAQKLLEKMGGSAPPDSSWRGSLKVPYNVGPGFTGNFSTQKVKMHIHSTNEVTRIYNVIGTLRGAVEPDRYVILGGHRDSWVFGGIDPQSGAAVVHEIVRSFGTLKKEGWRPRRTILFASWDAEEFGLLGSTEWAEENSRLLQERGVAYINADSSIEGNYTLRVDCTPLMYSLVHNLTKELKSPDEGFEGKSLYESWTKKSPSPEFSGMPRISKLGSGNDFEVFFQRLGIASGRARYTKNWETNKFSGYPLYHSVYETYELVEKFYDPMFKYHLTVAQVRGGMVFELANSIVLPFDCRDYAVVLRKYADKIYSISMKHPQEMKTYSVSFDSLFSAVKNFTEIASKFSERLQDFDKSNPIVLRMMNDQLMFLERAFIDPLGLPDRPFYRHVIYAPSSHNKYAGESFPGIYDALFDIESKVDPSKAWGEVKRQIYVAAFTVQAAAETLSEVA

Compound `CC(C)(C)[Si](F)(c1ccc(C(=O)NCC(NC(=O)CCC(C(=O)O)N2CCN(CC(=O)O)CCN(CC(=O)O)CCN(CC(=O)O)CC2)C(=O)NC(CN)C(=O)NCCC(=O)NCCC(=O)NCCCC(NC(=O)CCC(NC(=O)NC(CCC(=O)O)C(=O)O)C(=O)O)C(=O)O)cc1)C(C)(C)C` (centres unmarked) [Compound 2C011] displayed a logD7.4 in data set [1] of −2.88 ± 0.06. On PSMA, this compound came in with an IC50 of 6.08 ± 0.16 nM. For the same compound, in the data set with LNCaP cells, the Internalization came out at 163.2 ± 6.91 % IBA. For the same compound, the “HSA (HPAC)” value in data set [2] is listed as 89.8%. In data set [3], the MWapp came out at 18.9 kDa. Further, in data set [4], the “In vivo biodistribution (24 h p.i.) blood” value stood at 0.0042 ± 0.0019 % iA/g, the “In vivo biodistribution (24 h p.i.) kidney” value was 2.1 ± 0.49 % iA/g, the “In vivo biodistribution (24 h p.i.) tumor” value is 11.86 ± 0.75 % iA/g and the uptake in adrenals is given as 0.1488 % iD/g. In data set [4], this compound displayed an uptake in blood of 0.0042 % iD/g, an uptake in bone of 0.0363 % iD/g, an uptake in heart of 0.0254 % iD/g and an uptake in intestine of 0.2229 % iD/g. In data set [4], this compound gave an uptake in kidney of 2.0983 % iD/g, an uptake in liver of 0.2848 % iD/g, an uptake in lung of 0.0469 % iD/g and an uptake in muscle of 0.0067 % iD/g. Further, in data set [4], the uptake in pancreas is recorded as 0.0264 % iD/g, the “uptake in parotid gl.” value was determined as 0.0857 % iD/g, the uptake in spleen worked out at 0.3218 % iD/g and the uptake in stomach came out at 0.0829 % iD/g. In addition, in data set [4], the “uptake in submand. gl.” value amounted to 0.052 % iD/g and the uptake in tumor is listed as 11.8594 % iD/g.
Turning to `CC(C)(C)[Si](F)(c1ccc(C(=O)NC[C@@H](NC(=O)[C@@H](CCCNC(N)=O)NC(=O)CC[C@@H](C(=O)O)N2CCN(CC(=O)O)CCN(CC(=O)O)CCN(CC(=O)O)CC2)C(=O)NCCCCCC(=O)NCCC[C@@H](NC(=O)CC[C@H](NC(=O)N[C@@H](CCC(=O)O)C(=O)O)C(=O)O)C(=O)O)cc1)C(C)(C)C` [Compound 2C014], the logD7.4 in data set [1] is −3.37 ± 0.10. Moreover, the half-inhibitory concentration (IC50) at PSMA (read-out: IC50) was determined as 3.95 ± 1.36 nM. This compound gave an Internalization with LNCaP cells of 235 ± 20 % IBA. Also, the “HSA (HPAC)” value in data set [2] is recorded as 94.6%. The MWapp in data set [3] came out at 19.2 kDa. Further, in data set [4], the “In vivo biodistribution (24 h p.i.) blood” value was 0.0014 ± 0.0006 % iA/g, the “In vivo biodistribution (24 h p.i.) kidney” value came out at 2.77 ± 0.84 % iA/g, the “In vivo biodistribution (24 h p.i.) tumor” value is on record as 16.54 ± 3.37 % iA/g and the uptake in adrenals is on record as 0.1473 % iD/g. In data set [4], this compound showed an uptake in blood of 0.0014 % iD/g, an uptake in bone of 0.0327 % iD/g, an uptake in heart of 0.0245 % iD/g and an uptake in intestine of 0.1006 % iD/g. Also, in data set [4], the uptake in kidney was 2.7708 % iD/g, the uptake in liver is on record as 0.2376 % iD/g, the uptake in lung is listed as 0.0654 % iD/g and the uptake in muscle turned out to be 0.0107 % iD/g. In data set [4], the uptake in pancreas came out at 0.0192 % iD/g, the “uptake in parotid gl.” value is 0.09 % iD/g, the uptake in spleen is reported as 0.4296 % iD/g and the uptake in stomach worked out at 0.0367 % iD/g. Besides, in data set [4], the “uptake in submand. gl.” value amounted to 0.0555 % iD/g and the uptake in tumor is listed as 16.5415 % iD/g.
In data set [4], PSMA-617 [reference compound] yielded an uptake in adrenals of 0.1910 % iD/g, an uptake in blood of 0.0056 % iD/g, an uptake in bone of 0.0267 % iD/g and an uptake in heart of 0.0119 % iD/g. In addition, in data set [4], the uptake in intestine came out at 0.1185 % iD/g, the uptake in kidney is on record as 1.4421 % iD/g, the uptake in liver was determined as 0.1167 % iD/g and the uptake in lung was 0.0393 % iD/g. In data set [4], this compound came in with an uptake in muscle of 0.0092 % iD/g, an uptake in pancreas of 0.0106 % iD/g, an uptake in spleen of 0.0812 % iD/g and an uptake in stomach of 0.0201 % iD/g. In data set [4], this compound showed an uptake in tumor of 7.4568 % iD/g. Further, in data set [4] (n = 4, mean), the tumor-to-organ ratio adrenals came out at 43.54, the tumor-to-organ ratio blood is 1423.84, the tumor-to-organ ratio bone amounted to 471.67 and the tumor-to-organ ratio heart was determined as 704.01. Besides, in data set [4] (n = 4, mean), the tumor-to-organ ratio intestine is on record as 90.33, the tumor-to-organ ratio kidney is given as 5.85, the tumor-to-organ ratio liver is on record as 91.22 and the tumor-to-organ ratio lung came to 210.40. Also, in data set [4] (n = 4, mean), the tumor-to-organ ratio muscle worked out at 855.38, the tumor-to-organ ratio pancreas amounted to 798.52, the tumor-to-organ ratio spleen was determined as 93.28 and the tumor-to-organ ratio stomach stood at 375.80.
